From PMC7307922 (Journal of Medicinal Chemistry, 2020)

How the values were obtained:
hFFA3 [1] = molecular target: T1, hFFA3 (Homo sapiens, UniProt O14843); assay: cell-based; details: for Emax: HEK293, read-out: cAMP Emax; for increased potency in cAMP assay versus GTPγS assay / lower potency in cAMP assay versus GTPγS assay: cAMP vs GTPγS data; for cAMP pEC50: hFFA3, compound alone, mean of ≥3 independent experiments ± standard error; for PAM pEC50: cAMP assay in the presence of 1 μM propionate
T1 sequence (O14843 1-346): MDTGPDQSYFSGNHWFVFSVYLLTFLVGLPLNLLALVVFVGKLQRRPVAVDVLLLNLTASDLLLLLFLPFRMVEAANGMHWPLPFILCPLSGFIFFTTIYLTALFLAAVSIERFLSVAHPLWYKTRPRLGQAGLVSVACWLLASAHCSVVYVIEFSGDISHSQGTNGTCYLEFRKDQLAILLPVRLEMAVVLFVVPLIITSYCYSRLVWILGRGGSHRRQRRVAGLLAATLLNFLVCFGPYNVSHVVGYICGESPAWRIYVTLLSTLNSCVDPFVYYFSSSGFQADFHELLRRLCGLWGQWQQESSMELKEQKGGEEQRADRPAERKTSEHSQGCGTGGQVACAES
Procedure: (§1) The ligands were initially screened in a human FFA3-dependent [^35S]GTPγS binding assay as this assay reflects receptor-mediated activation of Gi/o proteins and is known to generally correlate well with ligand affinity.[30] Analogues of particular interest were tested further in a cAMP inhibition assay as this is an important downstream effect of Gi-activation. […] It is furthermore performed in whole cells, is more downstream, includes G protein signal amplification, and therefore better reflects a more natural ligand–receptor response.
HEK293 Flp-In T-Rex cells stably transfected with FFA3-eYFP receptors were incubated overnight with doxycycline to induce expression, then harvested, and cryopreserved. On the day of each experiment, cells were thawed and resuspended in stimulation buffer. Assays were carried out using a 384-well plate format with 3000 cells/well using the CisBio cAMP GS dynamic kit as per manufacturer’s protocol. Compounds were tested for the ability to inhibit 0.3 μM forskolin-induced cAMP production after co-incubation for 1 h. Reactions were measured using a PHERAstar FS plate reader (BMGLabtech, Aylesbury, UK).

hFFA3 [2] = molecular target: T1, hFFA3; assay: biochemical; details: for GTPγS pEC50: hFFA3, mean of ≥3 independent experiments ± standard error; for Emax: read-out: GTPγS Emax
Procedure: as §1
Membranes were isolated from Flp-In T-REx HEK293 cells treated with 100 ng/mL doxycycline to induce receptor expression. Cells were washed with ice-cold phosphate-buffered saline and removed from dishes by scraping before being centrifuged for 5 min at 4 °C, 3000 rpm. Pellets were resuspended in TE buffer (75 mM Tris–HCl, 5 mM EDTA; pH 7.5) with the addition of a protease inhibitor mixture (Roche Applied Science, West Sussex, UK). This was then homogenized with a 5 mL hand-held homogenizer and subsequently centrifuged at 1500 rpm for 5 min at 4 °C, from which the supernatant was collected and further centrifuged at 50 000 rpm for 30 min at 4 °C. The resulting pellet was resuspended in TE buffer, and the protein content was measured using a BCA protein assay kit (Pierce, Fisher Scientific, Loughborough, UK).
Reactions were initiated with the addition of [^35S]GTPγS at 50 nCi per tube; reactions were terminated after 1 h of incubation at 25 °C by rapid filtration through GF/C glass filters using a 24-well Brandel cell harvester (Alpha Biotech, Glasgow, UK). Unbound radioligand was removed from filters by washing three times with ice-cold wash buffer (50 mM Tris–HCl, pH 7.4, and 10 mM MgCl2), and [^35S]GTPγS binding was determined by liquid scintillation spectrometry.

Compound	Emax (hFFA3 [1]) [%]	increased potency in cAMP assay versus GTPγS assay (hFFA3 [1]) [fold]	cAMP pEC50 (hFFA3 [1])	GTPγS pEC50 (hFFA3 [2])	Emax (hFFA3 [2]) [%]	PAM pEC50 (hFFA3 [1])	drop in potency on replacement of o-tolyl (1) (hFFA3 [2]; relative to 1) [fold]	lower potency in cAMP assay versus GTPγS assay (hFFA3 [1]) [fold]	EC50 (hFFA3 [1]) [nM]	allosteric effect on propionate response (hFFA3 [1]; cAMP assay together with propionate (56: 30 μM compound; 62, 63: 1 μM propionate))
CC1=C(C(=O)Nc2ccccc2C)C(c2ccoc2)C2=C(CCCC2=O)N1 (stereo not shown) [Compound 2, reference compound]	97	10	6.27 ± 0.03	5.24 ± 0.08	135	–	–	–	–	–
CC1=C(C(=O)Nc2ccccc2C)C(c2ccccc2)C2=C(CCCC2=O)N1 (stereo not shown) [Compound 3, 2-Methyl-5-oxo-4-phenyl-N-(o-tolyl)-1,4,5,6,7,8-hexahydroquinoline-3-carboxamide]	98	14	5.91 ± 0.04	4.75 ± 0.11	103	–	–	–	–	–
CC1=C(C(=O)Nc2ccccc2C)C(c2cccs2)C2=C(CCCC2=O)N1 (stereo not shown) [Compound 4, 2-Methyl-5-oxo-4-(thiophen-2-yl)-N-(o-tolyl)-1,4,5,6,7,8-hexahydroquinoline-3-carboxamide]	102	–	5.79 ± 0.04	5.52 ± 0.18	111	5.92 ± 0.04	–	–	–	–
CC1=C(C(=O)Nc2ccccc2C)C(c2cccc(Br)c2)C2=C(CCCC2=O)N1 (stereo not shown) [Compound 6, 4-(3-Bromophenyl)-2-methyl-5-oxo-N-(o-tolyl)-1,4,5,6,7,8-hexahydroquinoline-3-carboxamide]	99	–	5.87 ± 0.06	5.49 ± 0.08	89	–	–	–	–	–
CC1=C(C(=O)Nc2ccccc2C)C(c2ccc(Br)cc2)C2=C(CCCC2=O)N1 (stereo not shown) [Compound 7, 4-(4-Bromophenyl)-2-methyl-5-oxo-N-(o-tolyl)-1,4,5,6,7,8-hexahydroquinoline-3-carboxamide]	103	–	5.79 ± 0.03	5.43 ± 0.09	85	–	–	–	–	–
CC1=C(C(=O)Nc2ccccc2C)C(c2cccc(C(F)(F)F)c2)C2=C(CCCC2=O)N1 (stereo not shown) [Compound 8, 2-Methyl-5-oxo-N-(o-tolyl)-4-(3-(trifluoromethyl)phenyl)-1,4,5,6,7,8-hexahydroquinoline-3-carboxamide]	98	–	5.55 ± 0.05	4.81 ± 0.13	118	–	–	–	–	–
CC1=C(C(=O)Nc2ccccc2C)C(c2ccc(C(F)(F)F)cc2)C2=C(CCCC2=O)N1 (stereo not shown) [Compound 9, 2-Methyl-5-oxo-N-(o-tolyl)-4-(4-(trifluoromethyl)phenyl)-1,4,5,6,7,8-hexahydroquinoline-3-carboxamide]	101	–	5.31 ± 0.06	5.12 ± 0.13	116	–	–	–	–	–
CC1=C(C(=O)Nc2ccccc2C)C(c2ccc(C)cc2)C2=C(CCCC2=O)N1 (stereo not shown) [Compound 10, 2-Methyl-5-oxo-N-(o-tolyl)-4-(p-tolyl)-1,4,5,6,7,8-hexahydroquinoline-3-carboxamide]	97	–	5.44 ± 0.04	4.52 ± 0.11	88	–	–	–	–	–
CCc1ccc(C2C(C(=O)Nc3ccccc3C)=C(C)NC3=C2C(=O)CCC3)cc1 (stereo not shown) [Compound 11, 4-(4-Ethylphenyl)-2-methyl-5-oxo-N-(o-tolyl)-1,4,5,6,7,8-hexahydroquinoline-3-carboxamide]	96	–	5.17 ± 0.08	4.08 ± 0.26	143	–	–	–	–	–
CC1=C(C(=O)Nc2ccccc2)C(c2ccco2)C2=C(CCCC2=O)N1 (stereo not shown) [Compound 12]	97	–	5.45 ± 0.03	5.11 ± 0.12	81	–	> 3	–	–	–
CC1=C(C(=O)Nc2cccc(C)c2)C(c2ccco2)C2=C(CCCC2=O)N1 (stereo not shown) [Compound 13, 4-(Furan-2-yl)-2-methyl-5-oxo-N-(m-tolyl)-1,4,5,6,7,8-hexahydroquinoline-3-carboxamide]	100	–	5.80 ± 0.04	5.34 ± 0.15	78	–	–	–	–	–
CC1=C(C(=O)Nc2ccc(C)cc2)C(c2ccco2)C2=C(CCCC2=O)N1 (stereo not shown) [Compound 14, 4-(Furan-2-yl)-2-methyl-5-oxo-N-(p-tolyl)-1,4,5,6,7,8-hexahydroquinoline-3-carboxamide]	100	–	6.16 ± 0.03	5.27 ± 0.12	88	–	–	–	–	–
COc1ccccc1NC(=O)C1=C(C)NC2=C(C(=O)CCC2)C1c1ccco1 (stereo not shown) [Compound 15, 4-(Furan-2-yl)-N-(2-methoxyphenyl)-2-methyl-5-oxo-1,4,5,6,7,8-hexahydroquinoline-3-carboxamide]	99	50	6.43 ± 0.03	4.71 ± 0.28	124	–	–	–	–	–
CC1=C(C(=O)Nc2ccccc2C)C(CC(C)C)C2=C(CCCC2=O)N1 (stereo not shown) [Compound 17, 4-Isobutyl-2-methyl-5-oxo-N-(o-tolyl)-1,4,5,6,7,8-hexahydroquinoline-3-carboxamide]	109	–	5.00 ± 0.06	5.68 ± 0.13	109	6.28 ± 0.14	–	5	–	–
CC1=C(C(=O)Nc2cccc(C)c2C)C(CC(C)C)C2=C(CCCC2=O)N1 (stereo not shown) [Compound 18, N-(2,3-Dimethylphenyl)-4-isobutyl-2-methyl-5-oxo-1,4,5,6,7,8-hexahydroquinoline-3-carboxamide]	97	–	4.98 ± 0.11	5.26 ± 0.16	88	–	–	2	–	–
CC1=C(C(=O)Nc2ccccc2I)C(CC(C)C)C2=C(CCCC2=O)N1 (stereo not shown) [Compound 19, N-(2-Iodophenyl)-4-isobutyl-2-methyl-5-oxo-1,4,5,6,7,8-hexahydroquinoline-3-carboxamide]	89	–	–	5.41 ± 0.15	129	–	–	–	2690	–
CCN(CC)CCOCC1C(C(=O)Nc2cc(Cl)ccc2Cl)=C(C)NC2=C1C(=O)CCC2 (stereo not shown) [Compound 54, N-(2,5-Dichlorophenyl)-4-((2-(diethylamino)ethoxy)methyl)-2-methyl-5-oxo-1,4,5,6,7,8-hexahydroquinoline-3-carboxamide]	–	–	nr^d	–	–	–	–	–	–	–
CC1=C(C(=O)Nc2cc(Cl)ccc2Cl)C(CNC(=O)OC(C)(C)C)C2=C(CCCC2=O)N1 (stereo not shown) [Compound 55, tert-Butyl((3-((2,5-dichlorophenyl)carbamoyl)-2-methyl-5-oxo-1,4,5,6,7,8-hexahydroquinolin-4-yl)methyl)carbamate]	–	–	nr^d	–	–	–	–	–	–	–
CC1=C(C(=O)Nc2cc(Cl)ccc2Cl)C(CC2CCN(C(=O)OC(C)(C)C)CC2)C2=C(CCCC2=O)N1 (stereo not shown) [Compound 56, tert-Butyl 4-((3-((2,5-dichlorophenyl)carbamoyl)-2-methyl-5-oxo-1,4,5,6,7,8-hexahydroquinolin-4-yl)methyl)piperidine-1-carboxylate]	–	–	nr^d	–	–	–	–	–	–	NAM
